# Patent US7514443B2, “Substituted pyrazolo[1,5-a]pyrimidines as inhibitors of metabotropic glutamate receptors” (Hoffmann-La Roche Inc., priority 2003, dated 2009)
row,SMILES,melting point [°C]
1,"N#Cc1cnn2c(C(F)(F)F)cc(-c3cccnc3)nc12 [Example 1.21, 5-Pyridin-3-yl-7-trifluoromethyl-pyrazolo[1,5-a]pyrimidine-3-carbonitrile]",193
2,"N#Cc1cnn2c(C(F)(F)F)cc(-c3ccncc3)nc12 [Example 1.22, 5-Pyridin-4-yl-7-trifluoromethyl-pyrazolo[1,5-a]pyrimidine-3-carbonitrile]",233
3,"Cc1nn2c(C(F)(F)F)cc(-c3ccc(C(F)(F)F)cc3)nc2c1C#N [Example 2.1, 2-Methyl-5-(4-trifluoromethyl-phenyl)-7-trifluoromethyl-pyrazolo[1,5-a]pyrimidine-3-carbonitrile]",184
4,"Cc1nn2c(C(F)(F)F)cc(-c3ccc(Cl)cc3)nc2c1C#N [Example 2.3, 5-(4-Chloro-phenyl)-2-methyl-7-trifluoromethyl-pyrazolo[1,5-a]pyrimidine-3-carbonitrile]",238
5,"Cc1nn2c(C(F)(F)F)cc(-c3ccc(F)c(Cl)c3)nc2c1C#N [Example 2.4, 5-(3-Chloro-4-fluoro-phenyl)-2-methyl-7-trifluoromethyl-pyrazolo[1,5-a]pyrimidine-3-carbonitrile]",196
6,"N#CCc1nn2c(C(F)(F)F)cc(-c3ccc(F)c(Cl)c3)nc2c1C#N [Example 3.1, 5-(3-Chloro-4-fluoro-phenyl)-2-cyanomethyl-7-trifluoromethyl-pyrazolo[1,5-a]pyrimidine-3-carbonitrile]",185
7,"FC(F)(F)c1cc(-c2ccc(Cl)cc2)nc2c(-c3cccnc3)cnn12 [Example 4.1, 5-(4-Chloro-phenyl)-3-pyridin-3-yl-7-trifluoromethyl-pyrazolo[1,5-a]pyrimidine]",188
8,"FC(F)(F)c1cc(-c2ccc(Cl)cc2)nc2c(-c3ccncc3)cnn12 [Example 4.2, 5-(4-Chloro-phenyl)-3-pyridin-4-yl-7-trifluoromethyl-pyrazolo[1,5-a]pyrimidine]",274
9,"Cc1cc(-c2cc(C(F)(F)F)n3ncc(-c4ccncc4)c3n2)ccc1Cl [Example 4.4, 5-(4-Chloro-3-methyl-phenyl)-3-pyridin-4-yl-7-trifluoromethyl-pyrazolo[1,5-a]pyrimidine]",247
10,"Cc1cc(-c2cc(C(F)(F)F)n3ncc(-c4ccccn4)c3n2)ccc1Cl [Example 4.5, 5-(4-Chloro-3-methyl-phenyl)-3-pyridin-2-yl-7-trifluoromethyl-pyrazolo[1,5-a]pyrimidine]",183
11,"Fc1ccc(-c2cc(C(F)(F)F)n3ncc(-c4cccnc4)c3n2)cc1Cl [Example 4.6, 5-(3-Chloro-4-fluoro-phenyl)-3-pyridin-3-yl-7-trifluoromethyl-pyrazolo[1,5-a]pyrimidine]",190
12,"Fc1ccc(-c2cc(C(F)(F)F)n3ncc(-c4ccncc4)c3n2)cc1Cl [Example 4.7, 5-(3-Chloro-4-fluoro-phenyl)-3-pyridin-4-yl-7-trifluoromethyl-pyrazolo[1,5-a]pyrimidine]",265
13,"Fc1ccc(-c2cc(C(F)(F)F)n3ncc(-c4ccccn4)c3n2)cc1Cl [Example 4.8, 5-(3-Chloro-4-fluoro-phenyl)-3-pyridin-2-yl-7-trifluoromethyl-pyrazolo[1,5-a]pyrimidine]",197
14,"FC(F)(F)c1cc(-c2ccc(Cl)c(Cl)c2)nc2c(-c3ccncc3)cnn12 [Example 4.10, 5-(3,4-Dichloro-phenyl)-3-pyridin-4-yl-7-trifluoromethyl-pyrazolo[1,5-a]pyrimidine]",260
15,"FC(F)(F)c1cc(-c2ccc(Cl)c(Cl)c2)nc2c(-c3ccccn3)cnn12 [Example 4.11, 5-(3,4-Dichloro-phenyl)-3-pyridin-2-yl-7-trifluoromethyl-pyrazolo[1,5-a]pyrimidine]",188
16,"FC(F)(F)c1ccc(-c2cc(C(F)(F)F)n3ncc(-c4ccccn4)c3n2)cc1 [Example 4.12, 5-(4-Trifluoromethyl-phenyl)-3-pyridin-2-yl-7-trifluoromethyl-pyrazolo[1,5-a]pyrimidine]",202

# Continued, values first:
row,melting point [°C],SMILES
1,171,"FC(F)(F)c1cccc(-c2cc(C(F)(F)F)n3ncc(-c4cccnc4)c3n2)c1 [Example 4.13, 5-(3-Trifluoromethyl-phenyl)-3-pyridin-3-yl-7-trifluoromethyl-pyrazolo[1,5-a]pyrimidine]"
2,163,"FC(F)(F)c1ccc(-c2cc(C(F)(F)F)n3ncc(-c4cccnc4)c3n2)cc1 [Example 4.14, 5-(4-Trifluoromethyl-phenyl)-3-pyridin-3-yl-7-trifluoromethyl-pyrazolo[1,5-a]pyrimidine]"
3,261,"FC(F)(F)c1ccc(-c2cc(C(F)(F)F)n3ncc(-c4ccncc4)c3n2)cc1 [Example 4.15, 5-(4-Trifluoromethyl-phenyl)-3-pyridin-4-yl-7-trifluoromethyl-pyrazolo[1,5-a]pyrimidine]"
4,241,"FC(F)(F)c1cccc(-c2cc(C(F)(F)F)n3ncc(-c4ccncc4)c3n2)c1 [Example 4.16, 5-(3-Trifluoromethyl-phenyl)-3-pyridin-4-yl-7-trifluoromethyl-pyrazolo[1,5-a]pyrimidine]"
5,262,"Fc1cc(-c2cc(C(F)(F)F)n3ncc(-c4ccncc4)c3n2)ccc1C(F)(F)F [Example 4.17, 5-(3-Fluoro-4-trifluoromethyl-phenyl)-3-pyridin-4-yl-7-trifluoromethyl-pyrazolo[1,5-a]pyrimidine]"
6,162,"Fc1cc(-c2cc(C(F)(F)F)n3ncc(-c4cccnc4)c3n2)ccc1C(F)(F)F [Example 4.18, 5-(3-Fluoro-4-trifluoromethyl-phenyl)-3-pyridin-3-yl-7-trifluoromethyl-pyrazolo[1,5-a]pyrimidine]"
7,256,"Cc1cc(-c2cnn3c(C(F)(F)F)cc(-c4ccc(Cl)cc4)nc23)cc(C)n1 [Example 4.19, 5-(4-Chloro-phenyl)-3-(2,6-dimethyl-pyridin-4-yl)-7-trifluoromethyl-pyrazolo[1,5-a]pyrimidine]"
8,254,"Cc1cc(-c2cnn3c(C(F)(F)F)cc(-c4ccc(Cl)c(C)c4)nc23)cc(C)n1 [Example 4.20, 5-(4-Chloro-3-methyl-phenyl)-3-(2,6-dimethyl-pyridin-4-yl)-7-trifluoromethyl-pyrazolo[1,5-a]pyrimidine]"
9,271,"Cc1cc(-c2cnn3c(C(F)(F)F)cc(-c4ccc(F)c(Cl)c4)nc23)cc(C)n1 [Example 4.21, 5-(3-Chloro-4-fluoro-phenyl)-3-(2,6-dimethyl-pyridin-4-yl)-7-trifluoromethyl-pyrazolo[1,5-a]pyrimidine]"
10,281,"Cc1cc(-c2cnn3c(C(F)(F)F)cc(-c4ccc(Cl)c(Cl)c4)nc23)cc(C)n1 [Example 4.22, 5-(3,4-Dichloro-phenyl)-3-(2,6-dimethyl-pyridin-4-yl)-7-trifluoromethyl-pyrazolo[1,5-a]pyrimidine]"
11,257,"Cc1cc(-c2cnn3c(C(F)(F)F)cc(-c4ccc(C(F)(F)F)cc4)nc23)cc(C)n1 [Example 4.23, 5-(4-Trifluoromethyl-phenyl)-3-(2,6-dimethyl-pyridin-4-yl)-7-trifluoromethyl-pyrazolo[1,5-a]pyrimidine]"
